According to US20260265175A1, “METHOD FOR OBTAINING ORGANIC ACIDS FROM AN AQUEOUS MOTHER LIQUOR” (Covestro Deutschland AG, priority 2022, published 2026):

Experiments:
[1] = Cu(OH)2 roughly stoichiometric, pH 4.5, starting solution 12 g/L
[2] = Precipitation of 2-aminobenzoic acid (oAB) from aqueous solution as metal compound; residual oAB in supernatant by HPLC; type: physicochemical; conditions: value is the detection limit
Excerpt: The pH was adjusted to about 3.5 with a 1M NaOH solution (corresponding to the isoelectric point of oAB). […] The solid (Cu(oAB)2, Fe(oAB)2 and/or Mn(oAB)2) was separated from the liquid phase by centrifugation.

Row | adipic acid concentration in liquid phase after precipitation with recycled Cu(OH)2 (sample C) [1] | Compound | oAB concentration in aqueous supernatant after precipitation of the metal compound of the organic acid (sample A) ([2]; CuSO4, FeSO4 or MnSO4, metal salt:oAB 1:2, pH about 3.5, room temperature, starting solution 5 g/L) | oAB concentration in liquid phase after precipitation with recycled metal hydroxide (sample C) ([2]; after addition both of Fe(OH)2 and Cu(OH)2, pH 3.5, starting solution 5 g/L)
1 | 3 g/L | O=C(O)CCCCC(=O)O [adipic acid, Adipic acid] | – | –
2 | – | Nc1ccccc1C(=O)O [oAB, 2-Aminobenzoic acid] | < 0.05 goAB/L | < 0.05 goAB/L
